The target of the assay is T1, PxylGr34 (Plutella xylostella, UniProt A0ABQ7Q355).
T1 construct: gene JYU34_016516; no tag or co-receptor stated
T1 sequence (A0ABQ7Q355 1-418): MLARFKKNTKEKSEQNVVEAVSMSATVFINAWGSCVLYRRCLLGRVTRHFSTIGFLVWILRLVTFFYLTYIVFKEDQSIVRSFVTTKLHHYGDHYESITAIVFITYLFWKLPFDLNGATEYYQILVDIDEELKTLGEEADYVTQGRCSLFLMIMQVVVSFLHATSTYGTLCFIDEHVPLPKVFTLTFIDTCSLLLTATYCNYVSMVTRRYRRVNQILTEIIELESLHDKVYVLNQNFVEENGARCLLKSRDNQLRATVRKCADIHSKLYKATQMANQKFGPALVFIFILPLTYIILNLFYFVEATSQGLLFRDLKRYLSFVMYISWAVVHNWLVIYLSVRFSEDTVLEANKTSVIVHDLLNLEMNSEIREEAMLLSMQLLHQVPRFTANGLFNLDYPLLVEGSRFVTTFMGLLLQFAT
Briefly: two-electrode voltage clamp, Xenopus oocytes. It counts as cell-based. Conditions: inward current, agonist at 10^-4 M, pH 7.5, holding potential -80 mV. A general note: Two-electrode voltage clamp is typically applied to oocytes expressing channels or transporters.

Molecules are shown by their SMILES.

Consider `CC/C=C\C[C@H]1C(=O)CC[C@@H]1CC(=O)OC` [Methyl jasmonate], for which the “two-electrode voltage clamp, Xenopus oocytes” value (“two-electrode voltage clamp” for short) was “Oocytes expressing PxylGr34 showed weak responses to methyl jasmonate and allyl isothiocyanate”.

For `C=CCN=C=S` [Allyl isothiocyanate], the “two-electrode voltage clamp” value is “Oocytes expressing PxylGr34 showed weak responses to methyl jasmonate and allyl isothiocyanate”.

As for `CC(C)[C@H](C)[C@@H](O)[C@H](O)[C@@H](C)[C@H]1CC[C@H]2[C@@H]3COC(=O)[C@H]4C[C@H](O)[C@H](O)C[C@]4(C)[C@H]3CC[C@]12C` [Brassinolide], for the setting “dose series recorded”, the “two-electrode voltage clamp” value was “BL induced a strong response in the oocytes expressing PxylGr34”.

Values taken from publication PMC7806260, “A gustatory receptor tuned to the steroid plant hormone brassinolide in Plutella xylostella (Lepidoptera: Plutellidae)” (eLife, 2020).
